Where two headings read alike, the source gives them in different places.
Assays:
A375 cells = experiment: Cytotoxicity test (8) of released drug; type: cell-based; details: Homo sapiens, A-375, 144 h, read-out: IC50, cytotoxic activity against the A375 cells
Experimental: A375 cells (ATCC) were cultured in DMEM (GIBCO) containing 10% fetal bovine serum (MOREGATE) (hereinafter, referred to as a medium). The A375 cells were prepared to have a concentration of 4×10^4 cells/mL by using a medium, added at a concentration of 25 μL/well to a 96-well microplate for cell culture (CORNING) charged with […] of a medium, and cultured overnight. On the next day, each test substance diluted into 1000 nM, 200 nM, 40 nM, 8 nM, 1.6 nM, 0.32 nM, and 0.064 nM by using DMSO was added at a concentration of 0.5 μL/well to the microplate. DMSO was added at a concentration of 0.5 μL/well to test substance non-supplemented wells. The volume of the medium in each well was adjusted to 100 μL by the addition of 10 μL/well of a medium, and the cells were cultured under 5% CO2 at 37° C. for 6 days. After the culture, the microplate was taken out from the incubator and left standing at room temperature for 30 minutes. The culture solution was charged with an equal amount of CellTiter-Glo Luminescent Cell Viability Assay (Promega) and stirred. After the microplate was left standing at room temperature for 10 minutes, the amount of light emission was measured by using a plate reader. The IC50 value was calculated according to the following equation: IC50(nM)=antilog((50−d)×(LOG10b−LOG10a)/(d−c)+LOG10b) • a: Concentration a of the test substance • b: Concentration b of the test substance • c: Ratio of live cells supplemented with the test substance having the concentration a • d: Ratio of live cells supplemented with the test substance having the concentration b
The concentrations a and b establish the relation a>b crossing 50% ratio of live cells.
The survival rate of cells was calculated according to the following equation: Survival rate of cells (%)=a/b×100 • a: Average amount of light emission from the test substance-supplemented wells (n=2) • b: Average amount of light emission from the test substance non-supplemented wells (n=10)

[1] = Self-degradation of released drug derivative with aminal structure; type: physicochemical; details: undergoes a self-degradation to release HO—CH2—C(═O)—(NH-DX)
topoisomerase I = biological target: T1, topoisomerase I (Homo sapiens, UniProt P11387); details: compared with SN-38 and topotecan; cited from earlier work
T1 sequence (P11387 1-765): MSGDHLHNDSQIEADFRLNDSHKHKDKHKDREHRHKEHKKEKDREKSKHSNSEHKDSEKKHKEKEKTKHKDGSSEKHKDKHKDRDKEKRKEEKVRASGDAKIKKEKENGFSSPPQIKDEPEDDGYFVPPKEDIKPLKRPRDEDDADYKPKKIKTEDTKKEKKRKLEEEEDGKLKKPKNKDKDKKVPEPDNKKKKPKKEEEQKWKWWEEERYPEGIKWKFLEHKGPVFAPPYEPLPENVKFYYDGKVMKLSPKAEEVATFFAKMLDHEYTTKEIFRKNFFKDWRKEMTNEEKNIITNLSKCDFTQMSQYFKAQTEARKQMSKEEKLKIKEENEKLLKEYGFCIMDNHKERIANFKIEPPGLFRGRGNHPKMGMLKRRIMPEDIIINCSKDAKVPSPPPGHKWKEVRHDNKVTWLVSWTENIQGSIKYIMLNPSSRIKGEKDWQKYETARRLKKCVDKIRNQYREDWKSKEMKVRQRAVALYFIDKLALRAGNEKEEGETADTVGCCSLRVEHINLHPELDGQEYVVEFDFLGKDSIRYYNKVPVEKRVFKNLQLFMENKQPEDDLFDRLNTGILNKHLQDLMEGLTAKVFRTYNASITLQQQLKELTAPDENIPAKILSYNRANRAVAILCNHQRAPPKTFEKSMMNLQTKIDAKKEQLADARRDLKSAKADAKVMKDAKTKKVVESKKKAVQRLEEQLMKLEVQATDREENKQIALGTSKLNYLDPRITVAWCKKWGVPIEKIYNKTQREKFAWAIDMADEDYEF

various cancer cells = details: against various cancer cells; cited from earlier work
human tumor = human tumor subcutaneously transplanted mouse model; cited from earlier work
[2] = tested on: Human melanoma line A375 cells; experiment: Antitumor test (1), subcutaneously transplanted A375; type: in vivo, mouse; details: A375 subcutaneous, female nude mice; 10 mg/kg intravenously at Days 11, 18, and 25; FIG. 17
Experimental: Mouse: 5- to 6-week-old female BALB/c nude mice (Charles River Laboratories Japan, Inc.) were acclimatized for 4 to 7 days under SPF conditions before use in the experiment. The mice were fed with sterilized solid feed (FR-2, Funabashi Farms Co., Ltd) and given sterilized tap water (prepared by the addition of 5 to 15 ppm sodium hypochlorite solution). Assay and calculation expression: In all studies, the major axis and minor axis of tumor were measured twice a week by using an electronic digital caliper (CD-15C, Mitutoyo Corp.), and the tumor volume (mm^3) was calculated. The calculation expression is as shown below. Tumor volume (mm^3)=1⁄2×Major axis (mm)×[Minor axis (mm)]^2 All of the antibody-drug conjugates were diluted with physiological saline (Otsuka Pharmaceutical Factory, Inc.) and used at a volume of 10 mL/kg for intravenous administration to the tail of each mouse. Human melanoma line A375 cells were purchased from ATCC (American Type Culture Collection). 8×10^6 cells suspended in physiological saline were subcutaneously transplanted to the right abdomen of each female nude mouse (Day 0), and the mice were randomly grouped at Day 11.

[3] = tested on: Human non-small cell lung cancer line Calu-6 cells; experiment: Antitumor test (3), subcutaneously transplanted Calu-6; type: in vivo, mouse; details: Calu-6 subcutaneous, female nude mice; 10 mg/kg intravenously at Days 11, 18, and 25 (qw×3); FIG. 19
Experimental: Assay and calculation expression: In all studies, the major axis and minor axis of tumor were measured twice a week by using an electronic digital caliper (CD-15C, Mitutoyo Corp.), and the tumor volume (mm^3) was calculated. The calculation expression is as shown below. Tumor volume (mm^3)=½×Major axis (mm)×[Minor axis (mm)]^2
Human non-small cell lung cancer line Calu-6 cells were purchased from ATCC (American Type Culture Collection). 5×10^6 cells suspended in physiological saline were subcutaneously transplanted to the right abdomen of each female nude mouse (Day 0), and the mice were randomly grouped at Day 11.

**Q.** Which IC50 (A375 cells) does the source give for `CC[C@@]1(O)C(=O)OCc2c1cc1n(c2=O)Cc2c-1nc1cc(F)c(C)c3c1c2[C@@H](NC(=O)CCCN)CC3` [Example (1), 4-Amino-N-[(1S,9S)-9-ethyl-5-fluoro-9-hydroxy-4-methyl-10,13-dioxo-2,3,9,10,13,15-hexahydro-1H,12H-benzo[de]pyrano[3′,4′:6,7]indolizino[1,2-b]quinolin-1-yl]butanamide] here?
**A.** Its IC50 is 10 to 100 nM.

**Q.** Which IC50 (A375 cells) does the source give for `CC[C@@]1(O)C(=O)OCc2c1cc1n(c2=O)Cc2c-1nc1cc(F)c(C)c3c1c2[C@@H](NC(=O)COCCN)CC3` [Example (42), 2-(2-Aminoethoxy)-N-[(1S,9S)-9-ethyl-5-fluoro-9-hydroxy-4-methyl-10,13-dioxo-2,3,9,10,13,15-hexahydro-1H,12H-benzo[de]pyrano[3′,4′:6,7]indolizino[1,2-b]quinolin-1-yl]acetamide] here?
**A.** Its IC50 is 1 to 10 nM.

**Q.** Which IC50 (A375 cells) does the source give for `CC[C@@]1(O)C(=O)OCc2c1cc1n(c2=O)Cc2c-1nc1cc(F)c(C)c3c1c2[C@@H](NC(=O)CO)CC3` [Example (75), N-[(1S,9S)-9-ethyl-5-fluoro-9-hydroxy-4-methyl-10,13-dioxo-2,3,9,10,13,15-hexahydro-1H,12H-benzo[de]pyrano[3′,4′:6,7]indolizino[1,2-b]quinolin-1-yl]-2-hydroxyacetamide] here?
**A.** Its IC50 is 0.1 to 1 nM.

**Q.** With `CCC1(O)C(=O)OCc2c1cc1n(c2=O)Cc2c-1nc1cc(F)c(C)c3c1c2C(NC(=O)COCN)CC3` (stereo not shown) [NH2—CH2—O—CH2—C(═O)—(NH-DX)] as the molecule, how does the “stability of the aminal structure in the molecule” value [1] read?
**A.** Its value is “unstable”.

**Q.** What does the source list for `CC[C@@]1(O)C(=O)OCc2c1cc1n(c2=O)Cc2c-1nc1cc(F)c(C)c3c1c2[C@@H](N)CC3` [exatecan, (1S,9S)-1-amino-9-ethyl-5-fluoro-2,3-dihydro-9-hydroxy-4-methyl-1H,12H-benzo[de]pyrano[3′,4′:6,7]indolizino[1,2-b]quinolin-10,13(9H,15H)-dione]?
**A.** IC50 (A375 cells; released drug, cultured 6 days, CellTiter-Glo): 0.1 to 1 nM; inhibitory activity on topoisomerase I (topoisomerase I): higher than SN-38; in vitro cytocidal activity (various cancer cells): higher in vitro cytocidal activity; antitumor effect (human tumor): potent antitumor effect

B1: M30-H1-L4P antibody: M30-H1-L4 antibody with the modification of a glycan regulated by defucosylation (antibody, chains of the INN, looked up, V domains shown)
VH: QVQLVQSGAEVKKPGSSVKVSCKASGYTFTNYVMHWVRQAPGQGLEWMGYINPYNDDVKYNEKFKGRVTITADESTSTAYMELSSLRSEDTAVYYCARWGYYGSPLYYFDYWGQGTLVTVSS
VL: EIVLTQSPATLSLSPGERATLSCRASSRLIYMHWYQQKPGQAPRPLIYATSNLASGIPARFSGSGSGTDFTLTISSLEPEDFAVYYCQQWNSNPPTFGQGTKVEIK
modifications: defucosylated
notes: M30-H1-L4 antibody with the modification of a glycan regulated by defucosylation
**Q.** With B1 as the molecule, how does the tumor volume [2] read?
**A.** The tumor volume was “progression of tumor growth”.

**Q.** What about the tumor volume [3] of the same molecule?
**A.** The tumor volume was “progression of tumor growth”.

Reference: patent US12186310B2, “Antibody-drug conjugate” (DAIICHI SANKYO COMPANY, LIMITED, priority 2012, dated 2025)
